# From patent publication US12227495B2, “Herbicidal compounds” (SYNGENTA CROP PROTECTION AG, priority 2018, dated 2025)
# Tests used:
# Format in all cases: in vivo
# [1] = system: Ipomoea hederacea (IPOHE); experiment: Post-emergence herbicide test, glasshouse, percentage damage; details: 1000 g/ha, evaluated after 13 days
# Procedure, shortened: (§1)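 Damage was rated 13 days after spraying on a five-point scale (1=0-20% to 5=81-100%). The compound was applied at 500 g/ha unless stated otherwise, in acetone/water 50:50 plus 0.5% Tween 20, on day 1 (pre-emergence) or day 8 (post-emergence) after sowing. Plants were kept under glasshouse conditions of 24/16° C day/night and 14 h light.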
# [2] = system: Setaria faberi (SETFA); experiment: as above; details: 1000 g/ha, evaluated after 13 days
# Procedure, shortened: as §1
# [3] = system: Lolium perenne (LOLPE); experiment: as above; details: 1000 g/ha, evaluated after 13 days
# Procedure, shortened: as §1
# [4] = system: Amaranthus retoflexus (AMARE); experiment: as above; details: 1000 g/ha, evaluated after 13 days
# Procedure, shortened: as §1
# [5] = system: Solanum nigrum (SOLNI); experiment: as above; details: 1000 g/ha, evaluated after 13 days
# Procedure, shortened: as §1
# [6] = system: Echinochloa crus-galli (ECHCG); experiment: as above; details: 1000 g/ha, evaluated after 13 days
# Procedure, shortened: as §1
# [7] = system: Ipomoea hederacea (IPOHE); experiment: Pre-emergence herbicide test, glasshouse, percentage damage; details: rate 1000 g/ha, evaluated after 13 days
# Procedure, shortened: as §1
# [8] = system: Setaria faberi (SETFA); experiment: as above; details: rate 1000 g/ha, evaluated after 13 days
# Procedure, shortened: as §1
# [9] = system: Lolium perenne (LOLPE); experiment: as above; details: rate 1000 g/ha, evaluated after 13 days
# Procedure, shortened: as §1
# [10] = system: Amaranthus retoflexus (AMARE); experiment: as above; details: rate 1000 g/ha, evaluated after 13 days
# Procedure, shortened: as §1
# [11] = system: Solanum nigrum (SOLNI); experiment: as above; details: rate 1000 g/ha, evaluated after 13 days
# Procedure, shortened: as §1
# [12] = system: Echinochloa crus-galli (ECHCG); experiment: as above; details: rate 1000 g/ha, evaluated after 13 days
# Procedure, shortened: as §1
SMILES,"percentage damage caused to the plant, IPOHE [1]","percentage damage caused to the plant, SETFA [2]","percentage damage caused to the plant, LOLPE [3]","percentage damage caused to the plant, AMARE [4]","percentage damage caused to the plant, SOLNI [5]","percentage damage caused to the plant, ECHCG [6]",Pre-emergence Test IPOHE percentage damage (five point scale) [7],Pre-emergence Test SETFA percentage damage (five point scale) [8],Pre-emergence Test LOLPE percentage damage (five point scale) [9],Pre-emergence Test AMARE percentage damage (five point scale) [10],Pre-emergence Test SOLNI percentage damage (five point scale) [11],Pre-emergence Test ECHCG percentage damage (five point scale) [12]
"Fc1cc(Cl)cnc1Oc1ccccc1-c1cc(C(F)(F)F)cs1 [Compound A97, 5-chloro-3-fluoro-2-[2-[4-(trifluoromethyl)-2-thienyl]phenoxy]pyridine]",4 (4=61-80%),5 (5=81-100%),3 (3=41-60%),5 (5=81-100%),4 (4=61-80%),4 (4=61-80%),2 (2=21-40%),4 (4=61-80%),2 (2=21-40%),4 (4=61-80%),2 (2=21-40%),3 (3=41-60%)
Fc1cccc(Oc2cccc(Br)c2-c2cc(C(F)F)no2)n1 [Compound A98],3 (3=41-60%),5 (5=81-100%),3 (3=41-60%),4 (4=61-80%),4 (4=61-80%),4 (4=61-80%),1 (1=0-20%),5 (5=81-100%),3 (3=41-60%),4 (4=61-80%),3 (3=41-60%),5 (5=81-100%)
FC(F)c1cc(-c2c(Br)cccc2Oc2cc(C(F)(F)F)ccn2)on1 [Compound A99],2 (2=21-40%),4 (4=61-80%),3 (3=41-60%),5 (5=81-100%),4 (4=61-80%),4 (4=61-80%),1 (1=0-20%),4 (4=61-80%),3 (3=41-60%),5 (5=81-100%),1 (1=0-20%),4 (4=61-80%)
Fc1cnc(Oc2cccc(Br)c2-c2cc(C(F)F)no2)c(F)c1 [Compound A101],5 (5=81-100%),5 (5=81-100%),4 (4=61-80%),5 (5=81-100%),5 (5=81-100%),4 (4=61-80%),5 (5=81-100%),5 (5=81-100%),5 (5=81-100%),5 (5=81-100%),4 (4=61-80%),5 (5=81-100%)
N#Cc1ccc(Oc2cccc(Br)c2-c2cc(C(F)F)no2)nc1 [Compound A102],5 (5=81-100%),5 (5=81-100%),4 (4=61-80%),5 (5=81-100%),5 (5=81-100%),4 (4=61-80%),4 (4=61-80%),5 (5=81-100%),5 (5=81-100%),5 (5=81-100%),4 (4=61-80%),5 (5=81-100%)
Fc1cc(Br)cnc1Oc1cccc(Br)c1-c1cc(C(F)F)no1 [Compound A103],5 (5=81-100%),5 (5=81-100%),5 (5=81-100%),5 (5=81-100%),5 (5=81-100%),4 (4=61-80%),5 (5=81-100%),5 (5=81-100%),5 (5=81-100%),5 (5=81-100%),3 (3=41-60%),5 (5=81-100%)
Fc1cc(C(F)(F)F)cnc1Oc1cccc(Br)c1-c1cc(C(F)F)no1 [Compound A104],4 (4=61-80%),4 (4=61-80%),3 (3=41-60%),4 (4=61-80%),5 (5=81-100%),4 (4=61-80%),4 (4=61-80%),5 (5=81-100%),4 (4=61-80%),4 (4=61-80%),2 (2=21-40%),4 (4=61-80%)
N#Cc1cc(Cl)cnc1Oc1cccc(Br)c1-c1cc(C(F)F)no1 [Compound A105],5 (5=81-100%),5 (5=81-100%),4 (4=61-80%),5 (5=81-100%),5 (5=81-100%),4 (4=61-80%),5 (5=81-100%),5 (5=81-100%),5 (5=81-100%),5 (5=81-100%),5 (5=81-100%),5 (5=81-100%)
FC(F)c1cc(-c2c(Br)cccc2Oc2ccc(Br)cn2)on1 [Compound A106],4 (4=61-80%),5 (5=81-100%),5 (5=81-100%),5 (5=81-100%),5 (5=81-100%),4 (4=61-80%),3 (3=41-60%),5 (5=81-100%),5 (5=81-100%),4 (4=61-80%),3 (3=41-60%),5 (5=81-100%)
N#Cc1cccnc1Oc1cccc(Br)c1-c1cc(C(F)F)no1 [Compound A107],4 (4=61-80%),5 (5=81-100%),3 (3=41-60%),5 (5=81-100%),5 (5=81-100%),4 (4=61-80%),3 (3=41-60%),5 (5=81-100%),2 (2=21-40%),5 (5=81-100%),2 (2=21-40%),4 (4=61-80%)
